Assay results as given in US20120016010A1, “RNA Interference Mediated Inhibition of BTB and CNC Homology 1, Basic Leucine Zipper Transcription Factor 1 (BACH1) Gene Expression Using Short Interfering Nucleic Acid (siNA)” (Merck Sharp & Dohme Corp, priority 2009, published 2012).
[invAb] = inverted abasic unit; d = 2'-deoxy (DNA); m = 2'-O-methyl; r = 2'-OH (RNA); f = 2'-fluoro

How the values were obtained:
[1] = system: Bach1 mRNA; assay: Initial screen: Bach1 mRNA knock-down in mouse NIH 3T3 cells (96-well transfection, quantitative RT-PCR); type: cell-based; settings: mouse NIH3T3 cells, n = 2, 24 hrs post-transfection, protocol 10 nM siNA
Method: (§1) All cells were obtained from ATCC (Manassas, Va.) unless otherwise indicated. Cells were grown and transfected under standard conditions, which are detailed below for each cell line.
(§2) Cells were plated in all wells of a tissue-culture treated, 96-well plate at a final count of 5000 cells/well in 100 μL of the appropriate culture media. The cells were cultured for 24 hours after plating at 37° C. in the presence of 5% CO2.
(§3) After 24 hours, complexes containing siNA and RNAiMax were created as follows: A solution of RNAiMax diluted 33-fold in OPTI-MEM was prepared. […] After incubation of RNAiMax/OPTI-MEM solution at room temperature for 5 min, an equal volume of the siNA solution and the RNAiMax solution were added together for each of the siNAs.
(§4) This solution was incubated at room temperature for 20 minutes. After incubation, 20 uL of the solution was added to each of the relevant wells. The final concentration of siNA in each well was 10 nM and the final volume of RNAiMax in each well was 0.3 ul. […]
(§5) Briefly, a 60 uL (1 plate) or 110 uL (2 plates) of the Lysis Solution with DNase I was dispensed into each well of the Lysis Buffer Plate (twin.tec full skirt plate). The lysis buffer and stop plates were stored at 4° C. until the cells were washed.
(§6) The plate was spun at 1100 rpm for 5 minutes. The culture medium was aspirated and discarded from the wells of the culture plate. The lysis was performed automatically using a BioMek FX instrument and method. After the Biomek method was completed, the lysis plate was incubated for 2 min at room temperature. The lysis plate can be stored for 2 hours at 4° C., or at −20° C. or −80° C. for two months.
(§7) Each well of the reverse transcription plate required 10 uL of 2× reverse transcriptase Buffer, 1 uL of 20× reverse transcription enzyme and 2 uL of nuclease-free water. The reverse transcription master mix was prepared by mixing 2× reverse transcription buffer, 20× reverse transcription enzyme mix, and nuclease-free water. 13 uL of the reverse transcription master mix was dispensed into each well of the reverse transcription plate (semi-skirted). A separate reverse transcription plate was prepared for each cell plate. The plate was loaded onto a Biomek NX or Biomek FX Dual −96 and the Biomek method was run. The program is programmed to automatically added 7 uL of lysate from the cell lysis procedure described above into each well of the reverse transcription plate. The plate is sealed and spun on a centrifuge (1000 rpm for 30 seconds) to settle the contents to the bottom of the reverse transcription plate. The plate is placed in a thermocycler at 37° C. for 60 min, 95° C. for 5 min, and 4° C. until the plate is removed from the thermocycler. Upon removal, if not used immediately, the plate was frozen at −20° C.
(§8) A series of probes and primers were used to detect the various mRNA transcripts of the genes of Bach1, HMOX-1, and GAPDH in mouse and human cell lines. The assays were performed on an ABI 7900 instrument, according to the manufacturer's instructions. […] The PCR reactions were carried out at 50° C. for 2 min, 95° C. for 20 min followed by 40 cycles at 95° C. for 15 secs and 60° C. for 1 min
(§9) Within each experiment, the […] was set in the exponential phase of the amplification curve, and based on the intersection point of the baselines with the amplification curve, a Ct value was assigned by the instrument.
(§10) The expression level of the gene of interest and % knock-down was calculated using Comparative Ct method:
(§11) ΔCt=ΔCt(Target siRNA)−ΔCt(NTC)
(§12) Relative expression level=2^−ΔΔCt
(§13) The non-targeting control siNA was, unless otherwise indicated, chosen as the value against which to calculate the % knock-down, because it is the most relevant control.

[2] = system: Bach1 mRNA; assay: Initial screen: Bach1 mRNA knock-down in human A549 cells (96-well transfection, quantitative RT-PCR); type: cell-based; settings: Bach1 mRNA, 10 nM siNA, human A549 cells, n = 2, mean ± S.D., normalized to GAPDH and non-targeting control, 24 hrs post-transfection
Method: as §1, §2, §3, §4, §5, §6, §7, §8, §9, §10, §11, §12, §13

Substance	% KD [1] [%]	% KD [2]
29948-DC: Bach1 siNA duplex, target site 1285; sense B GcGAGAAGuGGcAGAAcAc TTB (SEQ 45); antisense GUGuucuGccACuuCuCGcUU (SEQ 46) (sense GCGAGAAGUGGCAGAACACTT; antisense GUGUUCUGCCACUUCUCGCUU; sense: DNA at AGT, 2'-fluoro at CU, [invAb] at 5' end, 3' end, backbone not given here; antisense: sugars from the 5' end rrrffffmffmmffmfmmfmm, backbone not given here)	−16.3 ± 12.6	51.9 ± 3^ %
29949-DC: Bach1 siNA duplex, target site 664; sense B GuGuAAAcuccGcAGGuAu TTB (SEQ 47); antisense AUAccuGcGGAGuuuAcAcUU (SEQ 48) (sense GUGUAAACUCCGCAGGUAUTT; antisense AUACCUGCGGAGUUUACACUU; sense: DNA at AGT, 2'-fluoro at CU, [invAb] at 5' end, 3' end, backbone not given here; antisense: sugars from the 5' end rrrfffmfmmmmfffmfmfmm, backbone not given here)	−7.1 ± 5.2	25 ± 1.4%
29950-DC: Bach1 siNA duplex, target site 470; sense B GAGGAAuccuGcuuucAGu TTB (SEQ 49); antisense ACUGAAAGcAGGAuuccucUU (SEQ 50) (sense GAGGAAUCCUGCUUUCAGUTT; antisense ACUGAAAGCAGGAUUCCUCUU; sense: DNA at AGT, 2'-fluoro at CU, [invAb] at 5' end, 3' end, backbone not given here; antisense: sugars from the 5' end rrrmmmmmfmmmmffffffmm, backbone not given here)	42.5 ± 6.4	90.6 ± 1.7%
29951-DC: Bach1 siNA duplex, target site 1162; sense B GccuuuGucAGGuAcAGAc TTB (SEQ 51); antisense GUCuGuAccuGAcAAAGGcUU (SEQ 52) (sense GCCUUUGUCAGGUACAGACTT; antisense GUCUGUACCUGACAAAGGCUU; sense: DNA at AGT, 2'-fluoro at CU, [invAb] at 5' end, 3' end, backbone not given here; antisense: sugars from the 5' end rrrfmfmfffmmfmmmmmfmm, backbone not given here)	−22 ± 13.2	39 ± 11.2%
29952-DC: Bach1 siNA duplex, target site 732; sense B cAuAuGAGuccAuGuGcuu TTB (SEQ 53); antisense AAGcAcAuGGAcucAuAuGUU (SEQ 54) (sense CAUAUGAGUCCAUGUGCUUTT; antisense AAGCACAUGGACUCAUAUGUU; sense: DNA at AGT, 2'-fluoro at CU, [invAb] at 5' end, 3' end, backbone not given here; antisense: sugars from the 5' end rrrfmfmfmmmfffmfmfmmm, backbone not given here)	−15.7 ± 1.8	75 ± 0.9%
29953-DC: Bach1 siNA duplex, target site 1096; sense B cAcAuAuGAccAAuAuGGu TTB (SEQ 55); antisense ACCAuAuuGGucAuAuGuGUU (SEQ 56) (sense CACAUAUGACCAAUAUGGUTT; antisense ACCAUAUUGGUCAUAUGUGUU; sense: DNA at AGT, 2'-fluoro at CU, [invAb] at 5' end, 3' end, backbone not given here; antisense: sugars from the 5' end rrrmfmffmmffmfmfmfmmm, backbone not given here)	−11 ± 3.3	24 ± 14.1%
29954-DC: Bach1 siNA duplex, target site 1389; sense B cAGAAcAGAucucAcAGAA TTB (SEQ 57); antisense UCCuGuGAGAucuGuucuGUU (SEQ 58) (sense CAGAACAGAUCUCACAGAATT; antisense UCCUGUGAGAUCUGUUCUGUU; sense: DNA at AGT, 2'-fluoro at CU, [invAb] at 5' end, 3' end, backbone not given here; antisense: sugars from the 5' end rrrfmfmmmmfffmffffmmm, backbone not given here)	−10.2 ± 10.1	63.4 ± 0.9%
29955-DC: Bach1 siNA duplex, target site 737; sense B GAGuccAuGuGcuuAGAGA TTB (SEQ 59); antisense UCUcuAAGcAcAuGGAcucUU (SEQ 60) (sense GAGUCCAUGUGCUUAGAGATT; antisense UCUCUAAGCACAUGGACUCUU; sense: sugars from the 5' end rrrfffdfdfdfffddddddd, [invAb] at 5' end, 3' end, backbone not given here; antisense: sugars from the 5' end rrrffmmmfmfmfmmmfffmm, backbone not given here)	−12.2 ± 4.3	14.6 ± 0.2%
29958-DC: Bach1 siNA duplex, target site 851; sense B GucAAAGAcAuucAuGcuu TTB (SEQ 65); antisense AAGcAuGAAuGucuuuGAcUU (SEQ 66) (sense GUCAAAGACAUUCAUGCUUTT; antisense AAGCAUGAAUGUCUUUGACUU; sense: DNA at AGT, 2'-fluoro at CU, [invAb] at 5' end, 3' end, backbone not given here; antisense: sugars from the 5' end rrrfmfmmmfmfffffmmfmm, backbone not given here)	−50.4 ± 6.8	75.7 ± 8.6%
29959-DC: Bach1 siNA duplex, target site 1415; sense B GAGuGuccGuGGuuAGGuA TTB (SEQ 67); antisense UACcuAAccAcGGAcAcuCUU (SEQ 68) (sense GAGUGUCCGUGGUUAGGUATT; antisense UACCUAACCACGGACACUCUU; sense: DNA at AGT, 2'-fluoro at CU, [invAb] at 5' end, 3' end, backbone not given here; antisense: chemistry not given here; in key)	−9.9 ± 3.8	68 ± 14.9%
29960-DC: Bach1 siNA duplex, target site 1377; sense B ccAAAGAuGGcucAGAAcA TTB (SEQ 69); antisense UGUucuGAGccAucuuuGGUU (SEQ 70) (sense CCAAAGAUGGCUCAGAACATT; antisense UGUUCUGAGCCAUCUUUGGUU; sense: DNA at AGT, 2'-fluoro at CU, [invAb] at 5' end, 3' end, backbone not given here; antisense: sugars from the 5' end rrrfffmmmffmfffffmmmm, backbone not given here)	5.9 ± 6.4	34 ± 3%
29962-DC: Bach1 siNA duplex, target site 1240; sense B cAGGGAAGAuAGuAGuGuu TTB (SEQ 73); antisense AACAcuAcuAucuucccuGUU (SEQ 74) (sense CAGGGAAGAUAGUAGUGUUTT; antisense AACACUACUAUCUUCCCUGUU; sense: DNA at AGT, 2'-fluoro at CU, [invAb] at 5' end, 3' end, backbone not given here; antisense: sugars from the 5' end rrrmffmffmffffffffmmm, backbone not given here)	21.3 ± 2.2	88 ± 0.7%
